This note sets out measurements from US20160355530A1, “HEPATITIS C INHIBITORS AND USES THEREOF” (AbbVie Inc., priority 2010, published 2016).

As a reminder, the IC50 is the concentration that gives 50% inhibition. The term EC50 denotes the concentration giving half of the maximal effect.

Assay [1] concerns the target T1, HCV NS5B polymerase 1a-H77 (Hepatitis C virus genotype 1a, UniProt P27958).
T1 construct: six-histidine tag; made in house; host or cells: E. coli
Kind of assay: biochemical. Conditions: enzyme, strain 1a H77; read-out: HCV Polymerase Strain 1a H77 IC50. The arrangement: species or system HCV genotype 1a. In a few lines:
(§1)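 Recombinant NS5B (residues 1–570, His-tagged, E. coli-expressed) copied 5 nM of a 2.1 kb HCV 1b negative-strand 3′-end RNA template with 20 μM CTP, 20 μM ATP and 0.284 μM [3H]UTP for 3 h at 30 °C. Spermine-precipitated RNA was filter-captured and counted, and IC50 was fitted by nonlinear regression.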

Assay [2] concerns the target T2, HCV NS5B polymerase 1a-H77-C316Y (Hepatitis C virus genotype 1a, UniProt P27958, C2736Y).
T2 construct: six-histidine tag; made in house; host or cells: E. coli
Kind of assay: biochemical. The arrangement: species or system HCV genotype 1a. Summed up:
as §1

The subject of assay [3] is HCV NS5B polymerase 1a-H77-C316Y. Kind of assay: biochemical. The arrangement: species or system HCV genotype 1a. As to conditions: ratio of enzyme IC50s, 1a H77-C316Y / 1a H77. In a few lines: as §1
The target of assay [4] is T3, HCV NS5B polymerase 1b BK strain (Hepatitis C virus genotype 1b, UniProt P26663).
T3 construct: six-histidine tag; made in house; host or cells: E. coli
T3 sequence (P26663 2420-2989): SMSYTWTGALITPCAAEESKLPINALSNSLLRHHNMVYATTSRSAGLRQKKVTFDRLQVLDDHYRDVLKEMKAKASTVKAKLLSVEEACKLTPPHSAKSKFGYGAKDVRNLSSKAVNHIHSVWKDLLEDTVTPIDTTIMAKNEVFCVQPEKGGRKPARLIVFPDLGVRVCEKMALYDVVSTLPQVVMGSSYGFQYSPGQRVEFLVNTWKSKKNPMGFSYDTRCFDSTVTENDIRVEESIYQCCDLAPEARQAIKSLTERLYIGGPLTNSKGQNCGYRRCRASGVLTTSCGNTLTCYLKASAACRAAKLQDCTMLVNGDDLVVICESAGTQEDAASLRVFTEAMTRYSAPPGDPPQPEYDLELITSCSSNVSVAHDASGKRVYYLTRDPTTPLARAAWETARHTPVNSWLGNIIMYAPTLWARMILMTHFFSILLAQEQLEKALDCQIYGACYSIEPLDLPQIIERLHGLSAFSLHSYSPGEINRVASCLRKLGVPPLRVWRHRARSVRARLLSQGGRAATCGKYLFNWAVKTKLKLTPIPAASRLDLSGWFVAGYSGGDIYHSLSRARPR
Kind of assay: HCV NS5B polymerase enzymatic inhibition assay, strain 1b BK. It counts as biochemical. Conditions: enzyme, strain 1b BK; read-out: HCV Polymerase Strain 1b BK IC50. Summed up: as §1

The subject of assay [5] is HCV 1a-H77 subgenomic replicon. Kind of assay: microbe, parasite or virus in culture. Format: cell-based, HCV genotype 1a. Conditions: Hepatitis C virus, stable replicon. A general note: Replicon systems follow genome replication, usually without infectious particles.
The subject of assay [6] is HCV 1b-BB7 subgenomic replicon. Kind of assay: microbe, parasite or virus in culture. As to conditions: Hepatitis C virus, stable replicon. It counts as cell-based, HCV genotype 1b.
The test system of assay [7] is chimeric replicon with 2a-J6CF-derived NS5B. Kind of assay: microbe, parasite or virus in culture. Format: cell-based, HCV genotype 2a. As to conditions: Hepatitis C virus, read-out: 2a chimera 5% FBS EC50.
Assay [8] relates to chimeric replicon with genotype 2b NS5B. Kind of assay: microbe, parasite or virus in culture. Format: cell-based, HCV genotype 2b. Conditions: Hepatitis C virus, read-out: 2b chimera 5% FBS EC50.
Assay [9] has as its system chimeric replicon with genotype 3a NS5B. Kind of assay: microbe, parasite or virus in culture. Conditions: Hepatitis C virus, read-out: 3a chimera 5% FBS EC50. Format: cell-based, HCV genotype 3a.
Assay [10] concerns chimeric replicon with genotype 4a NS5B. Kind of assay: microbe, parasite or virus in culture. As to conditions: Hepatitis C virus, read-out: 4a chimera 5% FBS EC50. It counts as cell-based, HCV genotype 4a.
Assay [11] concerns HCV 1a-H77 transient subgenomic replicon in Huh-7 derived cell line. Kind of assay: microbe, parasite or virus in culture. Format: cell-based, HCV genotype 1a. As to conditions: Hepatitis C virus, Huh-7; transient replicon, 5% FBS; read-out: Transient Replicon 1a H77 5% FBS EC50. How it is done:
(§2) In addition to the stable replicon inhibition assays, transient replicon assays were performed. Transient replicons are identical to the 1a-H77 and 1a-H77-C316Y constructs, except they lack the Neo gene, making it impossible to establish stable cell lines. A T7 Megascript RNA synthesis kit (Ambion) was used to transcribe the HCV subgenomic RNA. The HCV RNA was then precipitated with lithium chloride according to manufacturer's instructions. The HCV subgenomic replicon RNA was transfected via electroporation into a Huh-7 derived cell line as described (Middleton T, et al. J. Virological Methods 2007; 145(2): 137-145). Transfected cells were diluted and plated in 96 well plates at 5×10^3 cells per well in DMEM. Four hours post-transfection, the wells from one plate were harvested for luciferase measurement. This plate provides a measure of the amount of translatable input RNA, and therefore transfection efficiency. To the wells of the remaining plates, a 3-fold dilution series of test compounds was added in DMSO (0.5% DMSO final concentration), and plates were incubated at 37° C., 5% CO2 in a humidified incubator for 4 days. After this period, the media was removed and the plates were washed with 100 μL phosphate-buffered saline per well. For the luciferase assay, 30 μL of Passive Lysis buffer (Promega) was added to each well, and then the plates were incubated for 15 minutes with rocking to lyse the cells. Luciferin solution (100 μL, Promega) was added to each well, and luciferase activity was measured with a Victor II luminometer (Perkin-Elmer). The EC50 values were calculated using GraphPad Prism 4 software.

For assay [12], the system named is HCV 1a-H77-C316Y transient subgenomic replicon in Huh-7 derived cell line. Kind of assay: microbe, parasite or virus in culture. It counts as cell-based, HCV genotype 1a. As to conditions: for EC50: Hepatitis C virus, Huh-7, read-out: Transient Replicon 1a H77-C316Y 5% FBS EC50; for Transient Replicon Fold Resistance C316Y/1a: ratio of transient replicon EC50s, C316Y / 1a H77. The procedure:
as §2

Where [13] appears, read: 5% FBS, absence of human plasma, read-out: Stable Replicon 1a H77 5% FBS EC50.
[14] abbreviates: strain 1a H77, 5% FBS + 40% human plasma, read-out: 1a H77 5% FBS + 40% Human Plasma EC50.
[15] abbreviates: strain 1a H77, 5% FBS, no human plasma, read-out: 1a H77 5% FBS EC50.
Setting [16] is: strain 1a H77, 5% FBS, read-out: 1a H77 5% FBS EC50.
[17] abbreviates: strain 1b BB7, 5% FBS + 40% human plasma, read-out: 1b BB7 5% FBS + 40% Human Plasma EC50.
The mark [18] stands for this setting: strain 1b BB7, 5% FBS, no human plasma, read-out: 1b BB7 5% FBS EC50.
The mark [19] stands for this setting: strain 1b BB7, 5% FBS, read-out: 1b BB7 5% FBS EC50.

SMILES strings stand for the structures. Like-named read-outs stand apart in the source and are kept apart here. Some results are limits rather than exact numbers.

T1 sequence (P27958 2421-2990): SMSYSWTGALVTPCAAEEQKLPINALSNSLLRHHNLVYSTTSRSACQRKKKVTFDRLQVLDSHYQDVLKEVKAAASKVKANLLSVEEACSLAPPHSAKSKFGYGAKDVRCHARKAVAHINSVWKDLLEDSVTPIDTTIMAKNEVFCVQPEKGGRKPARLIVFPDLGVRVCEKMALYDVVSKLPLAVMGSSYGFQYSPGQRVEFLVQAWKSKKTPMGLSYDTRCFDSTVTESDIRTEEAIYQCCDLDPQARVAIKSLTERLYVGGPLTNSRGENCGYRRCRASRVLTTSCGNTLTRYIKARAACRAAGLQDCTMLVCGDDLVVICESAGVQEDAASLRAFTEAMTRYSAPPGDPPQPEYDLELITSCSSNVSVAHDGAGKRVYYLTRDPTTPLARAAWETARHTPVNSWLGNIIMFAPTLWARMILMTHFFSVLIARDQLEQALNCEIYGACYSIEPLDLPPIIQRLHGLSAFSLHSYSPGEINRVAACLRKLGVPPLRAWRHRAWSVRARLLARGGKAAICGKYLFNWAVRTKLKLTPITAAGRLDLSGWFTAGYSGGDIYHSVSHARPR
T2 sequence (P27958 2421-2990 C2736Y): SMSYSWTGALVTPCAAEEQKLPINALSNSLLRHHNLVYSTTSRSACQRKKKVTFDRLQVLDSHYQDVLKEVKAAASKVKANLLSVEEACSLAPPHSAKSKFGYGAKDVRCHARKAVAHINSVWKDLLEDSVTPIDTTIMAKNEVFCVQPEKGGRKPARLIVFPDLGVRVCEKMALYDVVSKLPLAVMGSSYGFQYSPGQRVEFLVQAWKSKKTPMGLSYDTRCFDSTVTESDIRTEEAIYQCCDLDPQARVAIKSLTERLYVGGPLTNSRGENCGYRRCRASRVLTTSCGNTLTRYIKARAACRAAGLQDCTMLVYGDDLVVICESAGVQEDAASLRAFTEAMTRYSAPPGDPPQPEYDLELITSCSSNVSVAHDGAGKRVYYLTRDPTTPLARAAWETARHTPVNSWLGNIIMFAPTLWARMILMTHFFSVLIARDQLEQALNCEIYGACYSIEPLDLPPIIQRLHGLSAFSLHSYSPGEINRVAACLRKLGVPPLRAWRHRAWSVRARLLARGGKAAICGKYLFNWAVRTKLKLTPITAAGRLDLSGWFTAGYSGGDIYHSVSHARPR

Consider `CC(O)CCCN(c1cc2oc(-c3ccc(F)cc3)c(-c3ncc[nH]3)c2cc1C1CC1)S(C)(=O)=O` (stereo not drawn) [Example 100, N-[5-cyclopropyl-2-(4-fluorophenyl)-3-(1H-imidazol-2-yl)-1-benzofuran-6-yl]-N-(4-hydroxypentyl)methanesulfonamide], for which the IC50 in assay [1] was 3.5 nM; in assay [2], 53 nM; in assay [4], 8 nM. Also, the “C316Y/1a Fold Resistance” value in assay [3] is listed as 15 fold. For the same molecule, the half-maximal effective concentration (EC50) in assay [5] (setting [13]) was 6 nM; in assay [5] (setting [14]) it was 88 nM; in assay [5] (setting [15]), 6 nM; in assay [5] (setting [16]) it was 6 nM; in assay [6] (setting [17]), 57 nM; in assay [6] (setting [18]) it was 3.4 nM. Besides, the concentration giving a half-maximal response (EC50) in [6] (setting [19]) amounted to 3.4 nM; in assay [7], 19.8 nM; in [8] it was 16.3 nM; in assay [9], 3.1 nM; in assay [10], 21.6 nM; in assay [11] it was 4.2 nM. Moreover, the EC50 in assay [12] is 89.1 nM. Further, in [12], the “Transient Replicon Fold Resistance C316Y/1a” value is recorded as 21 fold.
Regarding `CC(C)CCN(c1cn2nc(-c3ccc(F)cc3)c(-c3ncc[nH]3)c2cc1C1CC1)S(C)(=O)=O` [Example 17, N-[5-cyclopropyl-2-(4-fluorophenyl)-3-(1H-imidazol-2-yl)pyrazolo[1,5-a]pyridin-6-yl]-N-(3-methylbutyl)methanesulfonamide], the IC50 in [1] was 34.9 nM; in assay [2], 1800 nM; in assay [4], 438 nM. Also, the “C316Y/1a Fold Resistance” value in assay [3] turned out to be 52 fold. For the same molecule, the concentration giving a half-maximal response (EC50) amounted to 98.9 nM in assay [5] (setting [13]); 1200 nM in [5] (setting [14]); 98.9 nM in assay [5] (setting [15]); 98.9 nM in assay [5] (setting [16]); 395 nM in assay [6] (setting [17]); 57.2 nM in assay [6] (setting [18]). Also, the 50% effective concentration (EC50) was 57.2 nM in assay [6] (setting [19]); 1000 nM in [7]; 1000 nM in assay [8]; 148 nM in assay [9]; greater than 1000 nM in assay [10]; 55 nM in assay [11]. In [12], the concentration giving a half-maximal response (EC50) was determined as 838 nM. For the same molecule, the “Transient Replicon Fold Resistance C316Y/1a” value in assay [12] was found to be 15 fold.
As for `CS(=O)(=O)N(CCCN1CCOCC1)c1cc2oc(-c3ccc(F)cc3)c(C3=NOCCN3)c2cc1C1CC1` [Example 126, N-[5-cyclopropyl-3-(5,6-dihydro-4H-1,2,4-oxadiazin-3-yl)-2-(4-fluorophenyl)-1-benzofuran-6-yl]-N-[3-(morpholin-4-yl)propyl]methanesulfonamide], the IC50 in assay [1] amounted to 21.5 nM; in [2] it was 91 nM; in [4], 111 nM. For the same molecule, the “C316Y/1a Fold Resistance” value in [3] is given as 4 fold. For the same molecule, the EC50 worked out at 25.3 nM in assay [5] (setting [13]); 258 nM in [5] (setting [14]); 25.3 nM in [5] (setting [15]); 25.3 nM in assay [5] (setting [16]); 379 nM in assay [6] (setting [17]); 30 nM in assay [6] (setting [18]). Also, the EC50 in assay [6] (setting [19]) worked out at 30 nM; in assay [7], 350 nM; in [8] it was 453 nM; in assay [9], 70 nM; in assay [10] it was 360 nM; in [11], 33.6 nM. Further, the 50% effective concentration (EC50) in assay [12] turned out to be 260 nM. Further, the “Transient Replicon Fold Resistance C316Y/1a” value in [12] is recorded as 8 fold.
Turning to `CS(=O)(=O)N(CCCCO)c1cc2oc(-c3ccc(F)cc3)c(C3=NOCN3)c2cc1C1CC1` [Example 16, N-[5-cyclopropyl-3-(4,5-dihydro-1,2,4-oxadiazol-3-yl)-2-(4-fluorophenyl)-1-benzofuran-6-yl]-N-(4-hydroxybutyl)methanesulfonamide], the results for the IC50 in assay [1], in assay [2] and in assay [4] were 3 nM, 35 nM and 18 nM, respectively. Moreover, the “C316Y/1a Fold Resistance” value in assay [3] turned out to be 12 fold. Also, the 50% effective concentration (EC50) in [5] (setting [13]) amounted to 3.8 nM; in assay [5] (setting [14]), 411 nM; in assay [5] (setting [15]), 3.8 nM; in [5] (setting [16]), 3.8 nM; in assay [6] (setting [17]), 2190 nM; in [6] (setting [18]) it was 2.5 nM. Besides, the EC50 was determined as 2.5 nM in [6] (setting [19]); 43.8 nM in assay [7]; 60.4 nM in assay [8]; 5.5 nM in assay [9]; 61.3 nM in assay [10]; 2.6 nM in assay [11]. Also, the concentration for a half-maximal effect (EC50) in [12] turned out to be 43.7 nM. For the same molecule, in [12], the “Transient Replicon Fold Resistance C316Y/1a” value came out at 17 fold.
For the molecule `CS(=O)(=O)N(CCCS(N)(=O)=O)c1cc2oc(-c3ccc(F)cc3)c(C3=NOCCN3)c2cc1C1CC1` [Example 124, 3-{[5-cyclopropyl-3-(5,6-dihydro-4H-1,2,4-oxadiazin-3-yl)-2-(4-fluorophenyl)-1-benzofuran-6-yl](methylsulfonyl)amino}propane-1-sulfonamide], the IC50 worked out at 4.5 nM in assay [1], 37 nM in assay [2] and 29 nM in assay [4]. The “C316Y/1a Fold Resistance” value in assay [3] is on record as 8 fold. Moreover, the concentration for a half-maximal effect (EC50) in assay [5] (setting [13]) came to 44.3 nM; in assay [5] (setting [14]), 501 nM; in assay [5] (setting [15]) it was 44.3 nM; in assay [5] (setting [16]), 44.3 nM; in assay [6] (setting [17]), 984 nM; in assay [6] (setting [18]) it was 44 nM. For the same molecule, the 50% effective concentration (EC50) in [6] (setting [19]) was found to be 44 nM; in [7], 1000 nM; in [8] it was 1000 nM; in assay [9], 139 nM; in assay [10], 962 nM; in assay [11], 33.4 nM. Moreover, the EC50 in assay [12] turned out to be 276 nM. In addition, in assay [12], the “Transient Replicon Fold Resistance C316Y/1a” value is reported as 8 fold.
For the molecule `CS(=O)(=O)N(CCCCO)c1cc2oc(-c3ccc(F)cc3)c(-c3ncc[nH]3)c2cc1C1CC1` [Example 5, N-[5-cyclopropyl-2-(4-fluorophenyl)-3-(1H-imidazol-2-yl)-1-benzofuran-6-yl]-N-(4-hydroxybutyl)methanesulfonamide], the 50% inhibitory concentration (IC50) in assay [1] is 3.9 nM; in assay [2] it was 53 nM; in assay [4], 17 nM. For the same molecule, the “C316Y/1a Fold Resistance” value in assay [3] is 14 fold. Besides, the EC50 in [5] (setting [13]) stood at 3.2 nM; in assay [5] (setting [14]), 50 nM; in assay [5] (setting [15]) it was 3.19 nM; in [5] (setting [16]), 3.2 nM; in assay [6] (setting [17]) it was 22 nM; in [6] (setting [18]) it was 3.69 nM. Further, the half-maximal effective concentration (EC50) in [6] (setting [19]) was found to be 3.7 nM; in assay [7] it was 28.9 nM; in [8], 27.9 nM; in assay [9], 4.7 nM; in assay [10], 32.2 nM; in [11], 3 nM. Moreover, the EC50 in assay [12] is 88.1 nM. Also, the “Transient Replicon Fold Resistance C316Y/1a” value in [12] amounted to 29 fold.
